Test results published in paper PMC7215574, “Development of Thiazolidinones as Fungal Carbonic Anhydrase Inhibitors” (International Journal of Molecular Sciences, 2020).
pKi: −log10 of the molar value. In brackets after ≈: the same amount, converted by molar mass. Like-named read-outs stand apart in the source and are kept apart here.

Assays:
C. tropicalis 3 strains [1] = system: T1, C. tropicalis 3 strains; experiment: microbe, parasite or virus in culture; design: species or system clinical Candida isolates; CLSI broth microdilution MIC, Sabouraud dextrose broth, 35 °C, visual complete growth inhibition; conditions: Candida tropicalis, 24 h, read-out: Tested Fungi (MIC Values μg/mL) / C. tropicalis 3 strains
T1 construct: 3 clinical isolates
Experimental: (§1) The in vitro antifungal activities were determined by the broth microdilution method with sabouraud dextrose broth (BBL Microbiology Systems, Cockeysville, MD, USA), as recommended by the by the CLSI [43]. Ninety-six-well polystyrene microtitre plates containing serial dilutions of each compound were inoculated with each microorganism to yield the appropriate density (1–5 × 10^3 cells/mL) in a 100-μL final volume. Each plate included (i) fungi without the addition of the compound, (ii) just the medium, and (iii) just the compound. Topical and systemic antifungal reference drugs, clotrimazole and fluconazole, were inserted in the experiment. The plates were incubated for 24 h at 35 °C. […] Three independent experiments were performed in triplicate. The antimicrobial activity of these thiazolidinones was evaluated versus 24 clinical Gram-positive (S. aureus and S. epidermidis) and Gram-negative (E. coli and Enterobacter spp.) microorganisms. The antifungal activity of these derivatives was then tested versus 16 clinical fungal isolates belonging to the most relevant Candida spp. (C. albicans, C. tropicalis, C. parapsilosis, C. sakè, and C. glabrata). Prior to testing, each isolate was cultured on a selective medium to ensure purity and optimal growth, as previously reported. The isolates were routinely identified by the morphological aspects of colonies and by biochemical identification. The used clinical isolates were collected from specimens of patients at the ‘Azienda Policlinico Umberto I’ (Sapienza University of Rome) and were obtained from hematology/oncology and surgery departments, which also included an intensive care unit. In particular, the samples were isolated from the upper and lower respiratory tract, blood, and indwelling venous catheters; the isolates were identified by conventional methodologies. Participating subjects gave their written informed consent for this study.

[2] = system: T2, Candida sake C. sakè 3 strains; experiment: microbe, parasite or virus in culture; design: species or system clinical Candida isolates; CLSI broth microdilution MIC, Sabouraud dextrose broth, 35 °C, visual complete growth inhibition; conditions: Fermentozyma sake, 24 h; read-out: Tested Fungi (MIC Values μg/mL) / C. sakè 3 strains
T2 construct: 3 clinical isolates
Experimental: as §1

C. glabrata 3 strains [3] = system: T3, C. glabrata 3 strains; experiment: microbe, parasite or virus in culture; design: species or system clinical Candida isolates; CLSI broth microdilution MIC, Sabouraud dextrose broth, 35 °C, visual complete growth inhibition; conditions: Nakaseomyces glabratus, 24 h, read-out: Tested Fungi (MIC Values μg/mL) / C. glabrata 3 strains
T3 construct: 3 clinical isolates
Experimental: as §1

[4] = system: T4, C. parapsilosis 2 strains; experiment: microbe, parasite or virus in culture; design: species or system clinical Candida isolates; CLSI broth microdilution MIC, Sabouraud dextrose broth, 35 °C, visual complete growth inhibition; conditions: Lodderomyces parapsilosis, 24 h, read-out: Tested Fungi (MIC Values μg/mL) / C. parapsilosis 2 strains
T4 construct: 2 clinical isolates
Experimental: as §1

CgNce103 = target: T5, CgNce103 (Nakaseomyces glabratus, UniProt Q6FTL6); experiment: stopped-flow CO2 hydrase assay; assay type: biochemical
T5 construct: gene NCE103; recombinant, obtained in-house as previously reported; beta-class zinc enzyme
T5 sequence (Q6FTL6 1-219): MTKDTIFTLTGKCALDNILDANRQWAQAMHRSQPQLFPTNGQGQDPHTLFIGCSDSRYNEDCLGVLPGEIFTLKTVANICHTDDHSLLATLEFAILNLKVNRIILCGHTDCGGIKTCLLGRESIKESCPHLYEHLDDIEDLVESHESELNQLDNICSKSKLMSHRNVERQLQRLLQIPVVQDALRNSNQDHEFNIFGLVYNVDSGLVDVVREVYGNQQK

C. albicans 5 strains = system: T6, C. albicans 5 strains; experiment: microbe, parasite or virus in culture; design: species or system clinical Candida isolates; broth microdilution antifungal MIC, visual growth inhibition, CLSI; conditions: Candida albicans, 24 h, read-out: Tested Fungi (MIC Values μg/mL) / C. albicans 5 strains
T6 construct: 5 clinical isolates
Experimental: as §1

[5] = stopped-flow CO2 hydrase assay; assay type: biochemical, Homo sapiens; conditions: read-out: hCA I
hCA I = target: T7, hCA I (Homo sapiens, UniProt P00915); experiment: stopped-flow CO2 hydrase assay; assay type: biochemical
T7 construct: gene CA1; recombinant, obtained in-house as previously reported
T7 sequence (P00915 2-261): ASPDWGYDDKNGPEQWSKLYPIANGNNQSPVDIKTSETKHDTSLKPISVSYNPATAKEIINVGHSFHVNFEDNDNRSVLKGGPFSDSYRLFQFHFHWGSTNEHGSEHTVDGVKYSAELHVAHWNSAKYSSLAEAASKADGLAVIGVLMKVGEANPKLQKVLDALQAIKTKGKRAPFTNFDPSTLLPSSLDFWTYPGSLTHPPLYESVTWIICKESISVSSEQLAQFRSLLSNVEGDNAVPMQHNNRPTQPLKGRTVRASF
Excerpt: stopped-flow CO2 hydrase assay on hCA I

hCA II = target: T8, hCA II (Homo sapiens, UniProt P00918); experiment: stopped-flow CO2 hydrase assay; assay type: biochemical
T8 construct: gene CA2; recombinant, obtained in-house as previously reported
Excerpt: stopped-flow CO2 hydrase assay on hCA II

[6] = system: T2, Candida sake C. sakè 3 strains; experiment: microbe, parasite or virus in culture; design: species or system clinical Candida isolates; broth microdilution antifungal MIC, visual growth inhibition, CLSI; conditions: Fermentozyma sake, 24 h; read-out: Tested Fungi (MIC Values μg/mL) / C. sakè 3 strains
Experimental: as §1

C. glabrata 3 strains [7] = system: T3, C. glabrata 3 strains; experiment: microbe, parasite or virus in culture; design: species or system clinical Candida isolates; broth microdilution antifungal MIC, visual growth inhibition, CLSI; conditions: Nakaseomyces glabratus, 24 h, read-out: Tested Fungi (MIC Values μg/mL) / C. glabrata 3 strains
Experimental: as §1

C. tropicalis 3 strains [8] = system: T1, C. tropicalis 3 strains; experiment: microbe, parasite or virus in culture; design: species or system clinical Candida isolates; broth microdilution antifungal MIC, visual growth inhibition, CLSI; conditions: Candida tropicalis, 24 h, read-out: Tested Fungi (MIC Values μg/mL) / C. tropicalis 3 strains
Experimental: as §1

SMILES | MIC (C. tropicalis 3 strains [1]) [µg/mL] | MIC [2] [µg/mL] | MIC (C. glabrata 3 strains [3]) [µg/mL] | MIC [4] [µg/mL] | pKi (CgNce103) | MIC (C. albicans 5 strains) [µg/mL] | pKi [5] | pKi (hCA I) | pKi (hCA II) | MIC [6] [µg/mL] | MIC (C. glabrata 3 strains [7]) [µg/mL] | MIC (C. tropicalis 3 strains [8]) [µg/mL]
O=C(N/N=C1\SCC(=O)N1c1ccccc1F)C(O)c1ccccc1 (centres unmarked) [3a] | 32 (≈ 89 µM) | 16 (≈ 44.5 µM) | 16 (≈ 44.5 µM) | 32 (≈ 89 µM) | 6.57 | 4 to 8 (≈ 11.1 to 22.3 µM) | < 4.00 | < 4.00 |  |  |  | 
O=C(N/N=C1\SCC(=O)N1c1cccc(F)c1)C(O)c1ccccc1 (centres unmarked) [3b] | 32 (≈ 89 µM) | 16 (≈ 44.5 µM) | 16 (≈ 44.5 µM) | 32 (≈ 89 µM) | 6.32 | 4 to 8 (≈ 11.1 to 22.3 µM) | < 4.00 | < 4.00 |  |  |  | 
O=C(N/N=C1\SCC(=O)N1c1ccc(F)cc1)C(O)c1ccccc1 (centres unmarked) [3c] | 32 (≈ 89 µM) | 16 (≈ 44.5 µM) | 16 (≈ 44.5 µM) | 32 (≈ 89 µM) | 6.42 | 4 to 8 (≈ 11.1 to 22.3 µM) |  | < 4.00 | 4.12 |  |  | 
O=C(N/N=C1\SCC(=O)N1c1ccccc1Cl)C(O)c1ccccc1 (centres unmarked) [3d] | 32 (≈ 85.1 µM) |  |  | 32 (≈ 85.1 µM) | 6.49 | 8 to 32 (≈ 21.3 to 85.1 µM) | < 4.00 | < 4.00 |  | 8 to 32 (≈ 21.3 to 85.1 µM) | 8 to 32 (≈ 21.3 to 85.1 µM) | 
O=C(N/N=C1\SCC(=O)N1c1cccc(Cl)c1)C(O)c1ccccc1 (centres unmarked) [3e] | 32 (≈ 85.1 µM) |  |  | 32 (≈ 85.1 µM) | 6.37 | 8 to 32 (≈ 21.3 to 85.1 µM) |  | < 4.00 | 4.30 | 8 to 32 (≈ 21.3 to 85.1 µM) | 8 to 32 (≈ 21.3 to 85.1 µM) | 
O=C(N/N=C1\SCC(=O)N1c1ccc(Cl)cc1)C(O)c1ccccc1 (centres unmarked) [3f] | 32 (≈ 85.1 µM) | 16 (≈ 42.6 µM) |  | 16 (≈ 42.6 µM) | 6.29 | 4 to 8 (≈ 10.6 to 21.3 µM) |  | < 4.00 | 4.20 |  | 4 to 8 (≈ 10.6 to 21.3 µM) | 
O=C(N/N=C1\SCC(=O)N1c1ccccc1Br)C(O)c1ccccc1 (centres unmarked) [3g] |  | 16 (≈ 38.1 µM) |  | 8 (≈ 19 µM) | 4.99 | 8 to 16 (≈ 19 to 38.1 µM) | < 4.00 | < 4.00 |  |  | 8 to 32 (≈ 19 to 76.1 µM) | 8 to 32 (≈ 19 to 76.1 µM)
O=C(N/N=C1\SCC(=O)N1c1cccc(Br)c1)C(O)c1ccccc1 (centres unmarked) [3h] |  | 16 (≈ 38.1 µM) |  | 8 (≈ 19 µM) | 6.09 | 8 to 16 (≈ 19 to 38.1 µM) |  | < 4.00 | 4.25 |  | 8 to 32 (≈ 19 to 76.1 µM) | 8 to 32 (≈ 19 to 76.1 µM)
O=C(N/N=C1\SCC(=O)N1c1ccc(Br)cc1)C(O)c1ccccc1 (centres unmarked) [3i] | 16 (≈ 38.1 µM) | 16 (≈ 38.1 µM) |  | 16 (≈ 38.1 µM) | 6.06 | 8 to 16 (≈ 19 to 38.1 µM) |  | < 4.00 | 4.32 |  | 4 to 8 (≈ 9.52 to 19 µM) | 
Cc1ccccc1N1C(=O)CS/C1=N\NC(=O)C(O)c1ccccc1 (centres unmarked) [3j] | 32 (≈ 90 µM) |  |  | 16 (≈ 45 µM) |  | 8 to 16 (≈ 22.5 to 45 µM) |  |  |  | 8 to 32 (≈ 22.5 to 90 µM) | 8 to 32 (≈ 22.5 to 90 µM) | 
Cc1cccc(N2C(=O)CS/C2=N\NC(=O)C(O)c2ccccc2)c1 (centres unmarked) [3k] | 32 (≈ 90 µM) |  |  | 16 (≈ 45 µM) | 6.39 | 8 to 32 (≈ 22.5 to 90 µM) |  | < 4.00 | 4.10 | 8 to 32 (≈ 22.5 to 90 µM) | 8 to 32 (≈ 22.5 to 90 µM) | 
Cc1ccc(N2C(=O)CS/C2=N\NC(=O)C(O)c2ccccc2)cc1 (centres unmarked) [3l] | 32 (≈ 90 µM) |  |  | 32 (≈ 90 µM) | 5.20 | 8 to 32 (≈ 22.5 to 90 µM) | < 4.00 | < 4.00 |  | 8 to 32 (≈ 22.5 to 90 µM) | 8 to 32 (≈ 22.5 to 90 µM) | 
COc1ccc(N2C(=O)CS/C2=N\NC(=O)C(O)c2ccccc2)cc1 (centres unmarked) [3m] | 32 (≈ 86.2 µM) |  |  | 32 (≈ 86.2 µM) | 6.41 | 8 to 32 (≈ 21.5 to 86.2 µM) | < 4.00 | < 4.00 |  | 8 to 32 (≈ 21.5 to 86.2 µM) | 8 to 32 (≈ 21.5 to 86.2 µM) | 
